From US20040037868A1, “Select prebiotics for use in weight attenuation message and method of communication” (priority 2002, published 2004)

What was measured:
[1] = double blind three-week study of calcium retention and absorption, inulin delivered in a RTE cereal (mass balance, stable isotope enrichment); format: in vivo, human; conditions: adolescent girls, ages 11-13, roughly 1600 mg calcium per day and 9 grams of inulin, three weeks
Description: In one double blind study ranging over a period of three weeks, a number of adolescent girls, ages 11-13, were provided with a diet containing roughly 1600 mg/calcium per day and 9 grams of inulin. The diet was delivered as part of a RTE cereal and the amount of calcium retention and absorption was measured by mass balance and stable isotope enrichment. Stool and urine samples were collected and analyzed for calcium excretion by atomic absorption spectrometry. Calcium retention was calculated as: Diet Ca−urine Ca−fecal Ca. Blood samples were also taken at prescribed intervals and serum and urine were analyzed for Ca by plasma mass spectrometry. The results of the analysis provided that inulin had no effect on the retention or absorption of calcium by subjects in this particular demographic.

[2] = calcium absorbed and retained in postmenopausal women versus placebo; format: in vivo, human; conditions: inulin in a food product
Text: It is believed that food products prepared in accordance with the present invention, would however provide an enhanced benefit to certain selected demographic sections of the population, namely postmenopausal women.

[3] = associated with a 1000-mg calcium intake increase; women of various ages; estimate; cited from earlier work

Row | Molecule | effect on absorption of calcium [1] | effect on retention of calcium [1] | level of calcium absorbed and retained versus placebo [2] | decrease in mean body weight [3] [kg]
1 | inulin | no effect | no effect | higher | –
2 | [Ca+2] [calcium] | – | – | – | 8
